Test results as given in PubChem BioAssay (NCI).
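Exposure lasted 48 hours, with cells grown in 96-well plates and compounds tested at five concentrations. The concentration for full growth arrest is given as TGI.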

Experiments:
Assay in all cases: NCI-60 cell line screen, 48 h
TK-10 renal = tested on: TK-10 renal
UO-31 renal = tested on: UO-31 renal
U251 CNS = tested on: U251 CNS
CAKI-1 renal = tested on: CAKI-1 renal
HCT-116 colon = tested on: HCT-116 colon
RXF 393 renal = tested on: RXF 393 renal
SR leukemia = tested on: SR leukemia
786-0 renal = tested on: 786-0 renal
HOP-92 NSCLC = tested on: HOP-92 NSCLC
IGROV1 ovarian = tested on: IGROV1 ovarian
SF-539 CNS = tested on: SF-539 CNS
KM20L2 colon = tested on: KM20L2 colon
OVCAR-8 ovarian = tested on: OVCAR-8 ovarian
K-562 leukemia = tested on: K-562 leukemia
SF-295 CNS = tested on: SF-295 CNS
A498 renal = tested on: A498 renal
UACC-62 melanoma = tested on: UACC-62 melanoma
ACHN renal = tested on: ACHN renal
SNB-75 CNS = tested on: SNB-75 CNS
RPMI-8226 leukemia = tested on: RPMI-8226 leukemia
CCRF-CEM leukemia = tested on: CCRF-CEM leukemia
HL-60(TB) leukemia = tested on: HL-60(TB) leukemia
A549 NSCLC = tested on: A549 NSCLC
UACC-257 melanoma = tested on: UACC-257 melanoma
DLD-1 colon = tested on: DLD-1 colon
HOP-62 NSCLC = tested on: HOP-62 NSCLC
SK-MEL-2 melanoma = tested on: SK-MEL-2 melanoma
SN12C renal = tested on: SN12C renal
OVCAR-4 ovarian = tested on: OVCAR-4 ovarian
RXF-631 renal = tested on: RXF-631 renal
HT29 colon = tested on: HT29 colon
HOP-18 NSCLC = tested on: HOP-18 NSCLC
SK-OV-3 ovarian = tested on: SK-OV-3 ovarian
SNB-19 CNS = tested on: SNB-19 CNS
DMS 114 small cell lung = tested on: DMS 114 small cell lung
MALME-3M melanoma = tested on: MALME-3M melanoma
HCC-2998 colon = tested on: HCC-2998 colon
OVCAR-5 ovarian = tested on: OVCAR-5 ovarian
HCT-15 colon = tested on: HCT-15 colon
SNB-78 CNS = tested on: SNB-78 CNS
M19-MEL melanoma = tested on: M19-MEL melanoma
KM12 colon = tested on: KM12 colon
SK-MEL-5 melanoma = tested on: SK-MEL-5 melanoma
SF-268 CNS = tested on: SF-268 CNS
DMS 273 small cell lung = tested on: DMS 273 small cell lung
COLO 205 colon = tested on: COLO 205 colon
NCI-H522 lung = tested on: NCI-H522 lung
M14 melanoma = tested on: M14 melanoma
LXFL 529 NSCLC = tested on: LXFL 529 NSCLC
SW-620 colon = tested on: SW-620 colon
MOLT-4 leukemia = tested on: MOLT-4 leukemia
LOX IMVI melanoma = tested on: LOX IMVI melanoma
NCI-H460 lung = tested on: NCI-H460 lung
EKVX NSCLC = tested on: EKVX NSCLC
NCI-H226 lung = tested on: NCI-H226 lung
OVCAR-3 ovarian = tested on: OVCAR-3 ovarian
NCI-H23 lung = tested on: NCI-H23 lung

Measured: TGI

S=C1SCC2CCCN12 (stereo not drawn)
not listed: EKVX NSCLC | NCI-H226 lung | OVCAR-3 ovarian | NCI-H23 lung
> 100 µM: all other assays above

Cc1nc(-n2nc(-c3ccccc3)cc2-c2ccccc2)sc1C(=O)CC(=O)C(=O)Nc1ccc(Cl)c(Cl)c1
not listed: HOP-92 NSCLC | SK-MEL-5 melanoma
> 100 µM: all other assays above
